Data as given in patent US12240840B2, “Amide-substituted heterocyclic compounds for the treatment of conditions related to the modulation of IL-12, IL-23 and/or IFN-alpha” (BRISTOL-MYERS SQUIBB COMPANY, priority 2018, dated 2025).

test system: IFNα-induced pSTAT5 (pY694) in CD3 positive cells of human whole blood; test: IFNα-Induced STAT Phosphorylation in Human Whole Blood; assay type: cell-based; conditions: Homo sapiens, 1 h compound incubation, 1000 U/mL recombinant human IFNα A/D for 15 min, pSTAT5 in CD3 positive population, read-out: Human WB IFNα-Induced Stat Phosph. (IC50)
How it was run: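 Read-out is median fluorescence intensity of pSTAT5 (pY694) in the CD3-positive gate, by flow cytometry after fix/lyse and permeabilization. Before that, whole human blood anticoagulated with EDTA or ACD-A received compound for an hour and 1000 U/mL IFNα A/D for 15 min.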

SMILES | IC50
COc1c(Nc2cc(NC(=O)C3CC3)nnc2C(N)=O)cccc1-c1noc(CN2CCCS2(=O)=O)n1 [Example 68] | 23 nM
[2H]C([2H])([2H])NC(=O)c1nnc(NC(=O)C2CC2)cc1Nc1cccc(-c2nc([C@H](C)NS(C)(=O)=O)no2)c1OC [Example 184] | 130 nM
[2H]C([2H])([2H])NC(=O)c1nnc(NC(=O)C2CC2)cc1Nc1cccc(-c2ncc(CO)s2)c1OC [Example 257] | 230 nM
[2H]C([2H])([2H])NC(=O)c1nnc(NC(=O)C2CC2)cc1Nc1cccc(-c2nc(CC=C)no2)c1OC [Example 229] | > 10000 nM
COc1c(Nc2cc(NCC3CC3)nnc2C(N)=O)cccc1-c1noc(CNS(C)(=O)=O)n1 [Example 119] | > 10000 nM
[2H]C([2H])([2H])NC(=O)c1nnc(NC(=O)C2CC2)cc1Nc1cccc(-c2nc(CN3CCOCC3)no2)c1OC [Example 124] | 210 nM
[2H]C([2H])([2H])NC(=O)c1nnc(NC(=O)C2CC2)cc1Nc1cccc(-n2cc(CN3CCN(S(C)(=O)=O)CC3)nn2)c1OC [Example 4] | 660 nM
[2H]C([2H])([2H])NC(=O)c1nnc(NC(=O)C2CC2)cc1Nc1cccc(-c2nc(CN3CCN(C(=O)C4(C#N)CC4)CC3)no2)c1OC [Example 133] | 100 nM
[2H]C([2H])([2H])NC(=O)c1nnc(NC(=O)C2CC2)cc1Nc1cccc(-c2nc(-c3ccccc3)no2)c1OC [Example 123] | > 10000 nM
[2H]C([2H])([2H])NC(=O)c1nnc(NC(=O)C2CC2)cc1Nc1cccc(-c2nc([C@@H](N)CO)no2)c1OC [Example 201] | 290 nM
[2H]C([2H])([2H])NC(=O)c1nnc(NC(=O)C2CC2)cc1Nc1cccc(-c2noc(C(=O)NC3CCC(N(C)C)CC3)n2)c1OC (centres unmarked) [Example 24] | 240 nM
[2H]C([2H])([2H])NC(=O)c1nnc(NC(=O)C2CC2)cc1Nc1cccc(-c2nc(CN3C[C@@H](C)O[C@@H](C)C3)no2)c1OC [Example 158] | 400 nM
[2H]C([2H])([2H])NC(=O)c1nnc(NC(=O)C2CC2)cc1Nc1cccc(-c2nc(CNC(=O)CN3CCN(C(=O)OC(C)(C)C)CC3)no2)c1OC [Example 161] | 9420 nM
[2H]C([2H])([2H])NC(=O)c1nnc(NC(=O)C2CC2)cc1Nc1cccc(-c2nc(CN3CCN(C(=O)OC(C)(C)C)CC3=O)no2)c1OC [Example 137] | 2640 nM
[2H]C([2H])([2H])NC(=O)c1cnc(NC(=O)CC)cc1Nc1cccc(-c2noc(COCC)n2)c1OC [Example 87] | 460 nM
[2H]C([2H])([2H])NC(=O)c1nnc(NC(=O)C2CC2)cc1Nc1cccc(-c2nc(CN(CCOC)CCOC)no2)c1OC [Example 175] | 660 nM
[2H]C([2H])([2H])NC(=O)c1nnc(NC(=O)C2CC2)cc1Nc1cccc(-c2nc([C@H](NC(=O)OC(C)(C)C)[C@H](C)OC(C)(C)C)no2)c1OC [Example 206] | > 10000 nM
COc1c(Nc2cc(NC(=O)C3CC3)nnc2C(N)=O)cccc1-c1ncc(C(=O)N2CCOCC2)s1 [Example 245] | 110 nM
[2H]C([2H])([2H])NC(=O)c1nnc(NC(=O)C2CC2)cc1Nc1cccc(-c2nc(CNC(=O)CN(C)C)no2)c1OC [Example 147] | 1720 nM
[2H]C([2H])([2H])NC(=O)c1nnc(NC(=O)C2CC2)cc1Nc1cccc(-c2ncc(C(=O)NCC34CCN(CC3)CC4)s2)c1OC [Example 287] | 1260 nM

Next, values leading:

IC50 | SMILES
220 nM | COc1c(Nc2cc(NC(=O)C3CC3)nnc2C(N)=O)cccc1-c1ncc(C(=O)NCC(O)CO)o1 (centres unmarked) [Example 420]
180 nM | [2H]C([2H])([2H])NC(=O)c1nnc(NC(=O)C2CC2)cc1Nc1cc(F)cc(-c2cc(C(=O)N3C[C@@H](C)O[C@@H](C)C3)n(C)n2)c1OC [Example 499]
30 nM | COc1c(Nc2cc(NC(=O)C3CC3)nnc2C(N)=O)cccc1-c1ncc(C(=O)N2CCC(CCO)CC2)s1 [Example 400]
14 nM | [2H]C([2H])([2H])NC(=O)c1nnc(NC(=O)C2CC2)cc1Nc1cccc(-c2ncc(C(=O)NCCC3CCCN3C)s2)c1OC (centres unmarked) [Example 299]
540 nM | [2H]C([2H])([2H])NC(=O)c1nnc(NC(=O)C2CC2)cc1Nc1cccc(-c2ncc(CN)s2)c1OC [Example 260]
250 nM | [2H]C([2H])([2H])NC(=O)c1nnc(Nc2ccc(OC)nn2)cc1Nc1cccc(-c2csc(C(=O)NCCOC)n2)c1OC [Example 565]
40 nM | [2H]C([2H])([2H])NC(=O)c1nnc(NC(=O)C2CC2)cc1Nc1cccc(-c2ncc(C(=O)N3CCN(CCO)CC3)s2)c1OC [Example 269]
70 nM | [2H]C([2H])([2H])NC(=O)c1nnc(NC(=O)C2CC2)cc1Nc1cccc(-c2ncc(C(=O)N3CCS(=O)(=O)CC3)s2)c1OC [Example 273]
220 nM | [2H]C([2H])([2H])NC(=O)c1nnc(NC(=O)C2CC2)cc1Nc1cccc(-c2ncc(C(=O)NCCC(C)C)s2)c1OC [Example 305]
250 nM | [2H]C([2H])([2H])NC(=O)c1nnc(NC(=O)C2CC2)cc1Nc1cc(F)cc(-c2cc(C(=O)N3CC4CN(C)CC4C3)n(C)n2)c1OC (centres unmarked) [Example 496]
220 nM | [2H]C([2H])([2H])NC(=O)c1nnc(NC(=O)C2CC2)cc1Nc1cccc(-c2cc(C)nn2CCNC(=O)COC)c1OC [Example 461]
90 nM | [2H]C([2H])([2H])NC(=O)c1nnc(NC(=O)C2CC2)cc1Nc1cccc(-c2ncc(C(=O)N3CC(C)(O)C3)s2)c1OC [Example 346]
460 nM | COc1c(Nc2cc(NC(=O)C3CC3)nnc2C(N)=O)cccc1-c1ncc(C(=O)N2CCC(CCO)CC2)o1 [Example 416]
110 nM | COc1c(Nc2cc(NC(=O)C3CC3)nnc2C(N)=O)cccc1-c1ncc(C(=O)NC(C)C)s1 [Example 404]
190 nM | [2H]C([2H])([2H])NC(=O)c1nnc(NC(=O)C2CC2)cc1Nc1cccc(-c2cnn(CC(=O)NCCO)n2)c1OC [Example 429]
310 nM | [2H]C([2H])([2H])NC(=O)c1nnc(NC(=O)C2CC2)cc1Nc1cccc(-c2nc(C)c(C(=O)N3CCC(CCN4CCCC4)CC3)s2)c1OC [Example 371]
> 10000 nM | [2H]C([2H])([2H])NC(=O)c1nnc(NC(=O)C2CC2)cc1Nc1cccc(-c2ncc(C(=O)N3CCc4ccccc4C3)s2)c1OC [Example 298]
3560 nM | [2H]C([2H])([2H])NC(=O)c1nnc(NC(=O)C2CC2)cc1Nc1cccc(-c2ccn(CCNC[C@H](O)CC)n2)c1OC [Example 474]
120 nM | [2H]C([2H])([2H])NC(=O)c1cnc(Nc2cnn(C)n2)cc1Nc1cc(F)cc(-c2cc(C(=O)N(C)C)n(C)n2)c1OC [Example 553]
240 nM | [2H]C([2H])([2H])NC(=O)c1nnc(NC(=O)C2CC2)cc1Nc1cccc(-c2cc(C(=O)N3C[C@@H](C)O[C@@H](C)C3)n(C)n2)c1OC [Example 525]
60 nM | [2H]C([2H])([2H])NC(=O)c1nnc(NC(=O)C2CC2)cc1Nc1cccc(-c2ncc(C(=O)N3CCC(N4CCCCC4)CC3)s2)c1OC [Example 351]
> 10000 nM | [2H]C([2H])([2H])NC(=O)c1nnc(NC(=O)C2CC2)cc1Nc1cccc(-c2ncc(NC(=O)OC(C)(C)C)s2)c1OC [Example 281]
650 nM | [2H]C([2H])([2H])NC(=O)c1nnc(NC(=O)C2CC2)cc1Nc1cccc(-c2cnn(CCNC(=O)COC)c2)c1OC [Example 562]
880 nM | [2H]C([2H])([2H])NC(=O)c1nnc(NC(=O)C2CC2)cc1Nc1cccc(-c2nc(C)c(C(=O)NCCCN(C)C)s2)c1OC [Example 357]
